Tests used:
intestinal crypts [1] = test: Model I: luminal delivery of cytotoxic drugs to clamped jejunal segment, crypt apoptosis by histology; assay type: in vivo, mouse; settings: for apoptosis in experimental segments / apoptosis in upstream segments: luminal delivery to clamped jejunal segment for 4 hr, 20 mg/kg BW; for apoptosis in experimental segments: apoptotic bodies in H & E sections; for apoptosis in upstream segments: segment immediately upstream
Description: A surgical model was developed that is simple and rapid enough to allow appropriate numbers of animals to be studied in a reasonable time period. To this end, a procedure was developed in which a 1 cm piece of jejunum is flushed and then clamped (with microvascular serrefines), the drug or vehicle was delivered to the clamped segment via a 27 gauge needle, the bowel is returned to the abdominal cavity and the incisions in both the peritoneum and the skin are sutured closed. The animal was allowed to regain consciousness for 4-6 hr. At the end of this time there was another brief isofluorane anesthesia, during which the original incisions are opened and the clamps are removed. In addition, at this time the location of the clamps was indicated by a piece of 5-0 silk.
Various doses of DOX and Bleomycin were delivered to clamped segments for 4 hr, then tissue from the experimental segment as well as a segment immediately upstream was collected for histology. Tissue sections were stained with H & E, and apoptosis was assessed by the presence of apoptotic bodies. For quantifying apoptotic cells, 10 crypts per animal (n=3) were selected and scored by a skilled artisan blinded to the experimental conditions. […] Thus, Bleomycin was being absorbed into the circulation and, thus, affecting the entire intestine. In contrast, DOX appears to be capable of local action, thus creating a suitable model for subsequent experiments.
In order to verify that luminally delivered DOX was affecting the stem cell region, the position of apoptotic cells within the crypt was scored. […] This is very similar to the pattern that has been previously reported following IP delivery of DOX (Ijiri and Potten, 1987).

[2] = cited from earlier work
[3] = mouse, in vivo; cited from earlier work
[4] = tested on: crypts of the mouse small intestine; settings: cited from earlier work; for i.p. dose that causes sterilization of 50% of crypts: dose-response data of Moore (1985)
[5] = cited from earlier work; remark: listed apart in the source
[6] = cited from earlier work; remark: listed apart in the source
intestinal crypts [7] = assay type: in vivo, mice
Procedure: The following model is preferable for luminal delivery of stem cell preparations, particularly wherein a second clamping procedure, such as the day after the damage, is preferable. As there are already published studies on IP delivery of DOX to mice (Ijiri and Potten, 1987; Moore, 1985), minimal additional studies were needed to establish this model. However, although it was already known that an IP dose of 20 mg/kg/BW DOX elicits apoptosis predominantly in the stem cell zone (Ijiri and Potten, 1987) and ablates approximately 50% of the stem cells (Moore, 1985), a complete time course of apoptosis has not been reported. Considering the nature of the timing of stem cell delivery, an apoptosis time course was performed in FIG. 6. […] In contrast, gross morphologic damage is not seen until 72 hr and appears maximal by 96 hr (FIG. 7). By 120 hr the beginning of crypt regeneration from the remaining stem cells is apparent (not shown). Based on these findings, after DOX the optimal time for luminal delivery of stem cells is 6 hr. […] At the same time, a significant proportion of the endogenous stem cells have been ablated, creating an opportunity for the exogenous cells to engraft. The clamping procedure after IP delivery of DOX has been performed successfully, and no evidence was found of gross bleeding into the clamped segment. There is, however, significant morbidity after the IP DOX. For example, body weights initially fall to a similar extent to that after luminal DOX, but in the case of IP DOX they never recover. Although our 10-day survival data after IP DOX is 100%, the literature predicts 40-50% mortality over the next 2 weeks (Oredipe et al., 2003). However, if the myelosuppressive effects of DOX are countered by administration of the drug Swainsonine (Sigma-Aldrich), for example the mice can be maintained until at least 70 days with only 36% mortality (Oredipe et al., 2003).

i.p. LD50 (literature) = assay type: in vivo; settings: mice
bone marrow = settings: administered systemically (Goodman and Gilman, 1975); cited from earlier work
[8] = mice; cited from earlier work

COc1cccc2c1C(=O)c1c(O)c3c(c(O)c1C2=O)C[C@@](O)(C(=O)CO)C[C@@H]3O[C@H]1C[C@H](N)[C@H](O)[C@H](C)O1 [DOX, doxorubicin]
damage to the basement membrane or to the underlying stromal tissue (intestinal crypts [1]; luminal DOX, light and EM levels): no evidence of damage
apoptosis in experimental segments (intestinal crypts [1]): significant apoptosis
apoptosis in upstream segments (intestinal crypts [1]): minimal effects
mortality over the next 2 weeks ([2]; after IP DOX, beyond 10 days, literature prediction): 40-50%
half-life [3]: 35 min
small intestinal crypts sterilized ([4]; IP 20 mg/kg BW (Moore, 1985)): approximately 50%
stem cells ablated ([4]; IP dose of 20 mg/kg/BW (Moore, 1985)): approximately 50%
i.p. dose that causes sterilization of 50% of crypts [4]: 15 mg/kg
solubility in normal saline [5]: soluble in normal saline
removed by the liver in a single pass [6]: 60%
time of apoptosis peak (intestinal crypts [7]; IP DOX 20 mg/kg BW): 6 h
time of beginning of crypt regeneration from remaining stem cells (intestinal crypts [7]; IP DOX 20 mg/kg BW): ≤ 120 h
time of maximal gross morphologic damage (intestinal crypts [7]; IP DOX 20 mg/kg BW): ≤ 96 hr
time until gross morphologic damage is seen (intestinal crypts [7]; IP DOX 20 mg/kg BW): 72 hr
apoptosis by 24 hr (intestinal crypts [7]; IP DOX 20 mg/kg BW, 24 hr): greatly reduced
body weights (intestinal crypts [7]; mouse, in vivo, ip): never recover
10-day survival (intestinal crypts [7]; mouse, in vivo, ip, 10 day): 100%

O[C@H]1[C@H]2[C@H](O)CCCN2C[C@H]1O [Swainsonine]
mortality until at least 70 days ([2]; Swainsonine given to counter myelosuppressive effects of DOX): 36%

Bleomycin
apoptosis in experimental segments (intestinal crypts [1]): caused apoptosis
apoptosis in upstream segments (intestinal crypts [1]): caused apoptosis in both experimental segment and upstream segments
i.p. dose that causes sterilization of 50% of crypts [4]: 60 mg/kg
solubility in normal saline [5]: soluble in normal saline
i.p. LD50 relative to i.p. dose causing sterilization of 50% of intestinal crypts (i.p. LD50 (literature)): ~4 fold
toxicity to bone marrow (bone marrow): minimal toxicity to bone marrow
i.p. LD50 [8]: 210 mg/kg

From patent publication US20050256077A1, “Gastrointestinal stem cells and uses thereof” (priority 2004, published 2005)
